Assay results taken from PubChem BioAssay AID248 (DTP/NCI, 2004).
Several values for one entry are separate records, joined by “and”; a condition that tells them apart may be missing. Identical values can stand only once. Toxic doses and inconclusive results are not listed. No stated cut-off is given here; in the data, active means T/C of 150% or more; inactive means T/C below 125%.

System: L1210 leukemia ip in BDF1 mice, survival T/C
Assay: NCI In Vivo Anticancer Drug Screen. Data for tumor model L1210 Leukemia (intraperitoneal) in B6D2F1 (BDF1) mice
Settings: endpoint: mean survival time, higher = longer survival
How it was run: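 Mice bearing the transplanted tumor received compound or vehicle. Survival of the treated group was divided by that of the vehicle-treated control group to give the ratio.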

[1] = dose: 25.0 mg/kg/injection, schedule: Q01DX009 (ip), vehicle: carboxymethylcellulose (CMC)
[2] = dose: 50.0 mg/kg/injection, schedule: Q01DX009 (ip), vehicle: carboxymethylcellulose (CMC)
[3] = dose: 100.0 mg/kg/injection, schedule: Q04DX003 (ip), vehicle: carboxymethylcellulose (CMC)
[4] = dose: 100.0 mg/kg/injection, schedule: Q01DX009 (ip), vehicle: Klucel (hydroxypropylcellulose) (HPC)
[5] = dose: 200.0 mg/kg/injection, schedule: Q01DX009 (ip), vehicle: Klucel (hydroxypropylcellulose) (HPC)
[6] = dose: 400.0 mg/kg/injection, schedule: Q01DX009 (ip), vehicle: Klucel (hydroxypropylcellulose) (HPC)
[7] = dose: 100.0 mg/kg/injection, schedule: Q04DX003 (ip), vehicle: Klucel (hydroxypropylcellulose) (HPC)
[8] = dose: 200.0 mg/kg/injection, schedule: Q04DX003 (ip), vehicle: Klucel (hydroxypropylcellulose) (HPC)
[9] = dose: 400.0 mg/kg/injection, schedule: Q04DX003 (ip), vehicle: Klucel (hydroxypropylcellulose) (HPC)

Measured: T/C

O=P1(c2ccccc2)OCCO1
inactive: [1] 97 % of control and 98 % of control | [2] 100 % of control and 101 % of control | dose: 100.0 mg/kg/injection, schedule: Q01DX009 (ip), vehicle: carboxymethylcellulose (CMC) 94 % of control and 100 % of control and 101 % of control | dose: 100.0 mg/kg/injection, schedule: Q04DX002 (ip), vehicle: carboxymethylcellulose (CMC) 93 % of control and 102 % of control | [3] 103 % of control | dose: 200.0 mg/kg/injection, schedule: Q04DX002 (ip), vehicle: carboxymethylcellulose (CMC) 96 % of control | dose: 200.0 mg/kg/injection, schedule: Q04DX003 (ip), vehicle: carboxymethylcellulose (CMC) 107 % of control | dose: 400.0 mg/kg/injection, schedule: Q04DX002 (ip), vehicle: carboxymethylcellulose (CMC) 96 % of control | dose: 400.0 mg/kg/injection, schedule: Q04DX003 (ip), vehicle: carboxymethylcellulose (CMC) 97 % of control

C=C(C)CC1(CC)C(=O)NC(=S)NC1=O
inactive: dose: 100.0 mg/kg/injection, schedule: Q04DX003 (ip), vehicle: saline with Tween-80 96 % of control | dose: 200.0 mg/kg/injection, schedule: Q04DX003 (ip), vehicle: saline with Tween-80 98 % of control

OC(CN1CCCCC1)c1ccncc1 (stereo not given)
inactive: dose: 75.0 mg/kg/injection, schedule: Q04DX003 (ip), vehicle: saline 94 % of control | dose: 150.0 mg/kg/injection, schedule: Q04DX003 (ip), vehicle: saline 94 % of control | dose: 300.0 mg/kg/injection, schedule: Q04DX003 (ip), vehicle: saline 96 % of control

O=C(Nc1ccc(Cl)cc1Cl)Nc1ccc(Cl)cc1Cl
inactive: dose: 100.0 mg/kg/injection, schedule: Q04DX002 (ip), vehicle: Klucel (hydroxypropylcellulose) (HPC) 91 % of control | dose: 200.0 mg/kg/injection, schedule: Q04DX002 (ip), vehicle: Klucel (hydroxypropylcellulose) (HPC) 94 % of control

c1nc2c([nH]1)CCCC2
inactive: dose: 25.0 mg/kg/injection, schedule: Q01DX001 (ip), vehicle: carboxymethylcellulose (CMC) 106 % of control | [1] 103 % of control and 91 % of control | dose: 25.0 mg/kg/injection, schedule: Q04DX002 (ip), vehicle: carboxymethylcellulose (CMC) 94 % of control and 102 % of control | dose: 25.0 mg/kg/injection, schedule: Q04DX003 (ip), vehicle: carboxymethylcellulose (CMC) 95 % of control | dose: 50.0 mg/kg/injection, schedule: Q01DX001 (ip), vehicle: carboxymethylcellulose (CMC) 102 % of control | [2] 94 % of control and 92 % of control | dose: 50.0 mg/kg/injection, schedule: Q04DX002 (ip), vehicle: carboxymethylcellulose (CMC) 94 % of control and 104 % of control | dose: 50.0 mg/kg/injection, schedule: Q04DX003 (ip), vehicle: carboxymethylcellulose (CMC) 105 % of control | [3] 92 % of control

COc1cc(/C=N/NC(=O)c2ccccc2OC)ccc1O
inactive: [4] 97 % of control | [5] 98 % of control | [6] 94 % of control

Cc1nc(/N=N/c2nc(C)c(C)[nH]2)[nH]c1C
inactive: [4] 95 % of control | [7] 88 % of control | [5] 104 % of control | [8] 93 % of control | [6] 92 % of control | [9] 93 % of control

CCCCCSc1nc(N)nc2nc[nH]c12
inactive: dose: 50.0 mg/kg/injection, schedule: Q01DX Z (ip), vehicle: methylcellulose (MC) 117 % of control | dose: 75.0 mg/kg/injection, schedule: Q01DX001 (ip), vehicle: saline 106 % of control | dose: 135.0 mg/kg/injection, schedule: Q01DX009 (ip), vehicle: saline 98 % of control | dose: 150.0 mg/kg/injection, schedule: Q01DX001 (ip), vehicle: saline 109 % of control | dose: 200.0 mg/kg/injection, schedule: Q01DX009 (ip), vehicle: saline 104 % of control | dose: 200.0 mg/kg/injection, schedule: Q01DX Z (ip), vehicle: methylcellulose (MC) 104 % of control | dose: 300.0 mg/kg/injection, schedule: Q01DX001 (ip), vehicle: saline 101 % of control | dose: 300.0 mg/kg/injection, schedule: Q01DX009 (ip), vehicle: saline 119 % of control

NC(CO)CSCc1ccccc1 (stereo not given)
inactive: dose: 6.25 mg/kg/injection, schedule: Q01DX009 (ip), vehicle: saline 105 % of control | dose: 12.5 mg/kg/injection, schedule: Q01DX009 (ip), vehicle: saline 100 % of control | dose: 25.0 mg/kg/injection, schedule: Q01DX009 (ip), vehicle: saline 110 % of control and 113 % of control | dose: 50.0 mg/kg/injection, schedule: Q01DX009 (ip), vehicle: saline 100 % of control and 102 % of control | dose: 100.0 mg/kg/injection, schedule: Q01DX009 (ip), vehicle: saline 104 % of control

CCN1C(=O)Cc2ccccc21
inactive: dose: 100.0 mg/kg/injection, schedule: Q01DX001 (ip), vehicle: Klucel (hydroxypropylcellulose) (HPC) 98 % of control | dose: 200.0 mg/kg/injection, schedule: Q01DX001 (ip), vehicle: Klucel (hydroxypropylcellulose) (HPC) 102 % of control | dose: 400.0 mg/kg/injection, schedule: Q01DX001 (ip), vehicle: Klucel (hydroxypropylcellulose) (HPC) 93 % of control

COC(=O)C1(C)CCCC2c3cc4c(cc3CCC21)C(=O)CC(C)O4 (stereo not given)
inactive: dose: 400.0 mg/kg/injection, schedule: Q01DX001 (ip), vehicle: carboxymethylcellulose (CMC) 86 % of control

CC(C)(C)OC1C2C=CC1C=C2 (stereo not given)
inactive: dose: 12.5 mg/kg/injection, schedule: Q04DX003 (ip), vehicle: Klucel (hydroxypropylcellulose) (HPC) 93 % of control | dose: 25.0 mg/kg/injection, schedule: Q04DX003 (ip), vehicle: Klucel (hydroxypropylcellulose) (HPC) 91 % of control | dose: 50.0 mg/kg/injection, schedule: Q04DX003 (ip), vehicle: Klucel (hydroxypropylcellulose) (HPC) 91 % of control | [7] 95 % of control

O=C(NCCCl)Nn1c2ccccc2c2ccccc21
inactive: [4] 86 % of control | [7] 104 % of control | [5] 95 % of control | [8] 98 % of control | [6] 88 % of control | [9] 106 % of control

O=C1OC(=O)C2C(c3ccccc3)C=CC(c3ccccc3)C12 (stereo not given)
inactive: dose: 50.0 mg/kg/injection, schedule: Q01DX009 (ip), vehicle: saline with Tween-80 98 % of control | dose: 100.0 mg/kg/injection, schedule: Q01DX009 (ip), vehicle: saline with Tween-80 108 % of control | dose: 100.0 mg/kg/injection, schedule: Q04DX003 (ip), vehicle: saline 92 % of control | dose: 200.0 mg/kg/injection, schedule: Q01DX009 (ip), vehicle: saline with Tween-80 98 % of control | dose: 200.0 mg/kg/injection, schedule: Q04DX003 (ip), vehicle: saline 108 % of control

NC(N)=Nc1ccc(C(=O)Oc2ccc([N+](=O)[O-])cc2CN2CCCCC2)cc1
inactive: dose: 0.5 mg/kg/injection, schedule: Q04DX003 (ip), vehicle: water 102 % of control | dose: 1.0 mg/kg/injection, schedule: Q04DX003 (ip), vehicle: water 110 % of control | dose: 2.0 mg/kg/injection, schedule: Q04DX003 (ip), vehicle: water 96 % of control | dose: 3.12 mg/kg/injection, schedule: Q01DX009 (ip), vehicle: water 93 % of control | dose: 3.12 mg/kg/injection, schedule: Q04DX003 (ip), vehicle: water 105 % of control | dose: 4.0 mg/kg/injection, schedule: Q04DX003 (ip), vehicle: water 102 % of control | dose: 6.25 mg/kg/injection, schedule: Q01DX009 (ip), vehicle: water 96 % of control | dose: 12.5 mg/kg/injection, schedule: Q01DX009 (ip), vehicle: water 101 % of control | dose: 12.5 mg/kg/injection, schedule: Q04DX003 (ip), vehicle: water 108 % of control
